Literature values as cited in patent US6667342B1, “Benzenesulfonamide-derivatives and their use as medicaments” (Astrazeneca AB, priority 1998, dated 2003).

What was measured:
[1] = system: PDH

## O=C(O)C(Cl)Cl [DCA, dichloroacetic acid]
Stacpoole et al. 1978
  glycaemia: reducing glycaemia
After repeated administration (Evans and Stacpoole 1982)
  plasma glucose: significant decrease
[1]; after acute administration in animals (Vary et al. 1988)
  activity of PDH: increases
[1]; single administration, 150 mg/kg, intraperitoneally (Vary et al. 1988)
  proportion of PDH in its active form: increased
